Key:
[1] = Pharmacokinetic profile in mice after oral gavage; format: in vivo, mouse; conditions: mouse; fasted male Hilltop mice, 10 mg/kg oral gavage, plasma; read-out: Cmax
Method: Pharmacokinetic Profile in Mice
In this series of studies, the pharmacokinetic profile characteristics of compounds of the present invention were evaluated. The plasma concentration levels of the compounds were monitored in the blood stream (i.e., plasma) after oral gavage using Cmax, and area under the curve (AUC).
8 week old male Hilltop mice were fasted overnight. Animals were randomized into groups (n=9) by body weight. Mice were dosed with 10 mg/kg compound (in 20% PEG400/80% 0.5% carboxymethylcellulose (medium viscosity)+0.25% Tween-80) at a volume of […] through oral gavage. Blood was collected via orbital bleeding at 0, 0.25, 0.5, 1, 2, and 4 h post-dose, with no one mouse having more than 3 blood draws. Blood was collected in EDTA coated tubes. Samples were stored at −20° C. until analysis.
Quantitation of compound levels in plasma was accomplished by LC-MS/MS analysis. Standard curve and quality control samples were prepared in male CD-1 mouse plasma containing EDTA K^2+ as an anticoagulant at final concentrations ranging from 500 to 0.1 ng/mL. The plasma samples, calibration curve standards, and quality control samples were prepared in an identical method in a 96-well deep plate (1 mL) with a quenching solution (1:1 mixed acetonitrile:methanol containing the internal standard Reserpine @ 400 ng/mL). Low volume samples were supplemented with CD-1 mouse plasma. The plate was mixed on multi-tube vortexer for 1 min and centrifuged at 4000 rpm for 30 min at 4° C. (Sorvall® Super T21) before LC-MS/MS analysis. LC conditions were developed and optimized based on each compound as needed. The outlet of the column was coupled to AB Sciex 4000 QTrap Mass Spectrometer (AB Sciex, Brugg Switzerland). Detection was carried out using multiple reaction monitoring mode with positive-ion detection focusing. The pharmacokinetic parameters were derived from the plasma-time data and calculated using the standard non-compartmental method with WinNonlin (Pharsight, Mountain View, Calif.) or PK Solver (Comp. Meth. Prog. Biomed. (2010), 99, 306-314).
Values reported are the mean plasma concentration of three mice. […]

human TGR5 receptor = molecular target: T1, human TGR5 receptor (Homo sapiens, UniProt Q8TDU6); test: Human TGR5 cAMP production assay (hTGR5-CHO cells, DiscoveRx cAMP XS+ kit); format: cell-based; conditions: luminescent cAMP assay, read-out: Human TGR5 Lum. cAMP Activity (EC50)
T1 construct: host or cells: CHO-K1 (hTGR5-CHO)
T1 sequence (Q8TDU6 1-330): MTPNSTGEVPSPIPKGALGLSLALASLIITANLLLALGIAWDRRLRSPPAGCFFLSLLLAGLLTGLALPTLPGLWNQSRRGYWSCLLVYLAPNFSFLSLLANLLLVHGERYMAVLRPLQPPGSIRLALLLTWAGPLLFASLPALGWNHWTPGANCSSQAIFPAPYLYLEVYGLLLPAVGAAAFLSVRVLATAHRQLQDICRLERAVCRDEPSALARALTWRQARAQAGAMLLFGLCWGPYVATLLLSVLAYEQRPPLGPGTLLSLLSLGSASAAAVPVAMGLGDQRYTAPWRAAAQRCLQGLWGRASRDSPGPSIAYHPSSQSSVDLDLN
How it was run: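 CHO-K1 cells stably expressing hTGR5, in PBS with IBMX and cAMP antibody, treated with half-log compound dilutions for 1 h at room temperature. cAMP measured by enzyme-fragment complementation luminescence after overnight detection; EC50 values reported.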

mouse TGR5 receptor = molecular target: T2, mouse TGR5 receptor (Mus musculus, UniProt Q80SS6); test: Mouse TGR5 HTRF cAMP production assay (HEK293-EBNA cells, Cisbio cAMP HiRange kit); format: cell-based; conditions: HEK293-EBNA cells overexpressing mouse TGR5, HTRF cAMP assay
T2 construct: host or cells: HEK293-EBNA (293 c18, ATCC CRL10852)
T2 sequence (Q80SS6 1-329): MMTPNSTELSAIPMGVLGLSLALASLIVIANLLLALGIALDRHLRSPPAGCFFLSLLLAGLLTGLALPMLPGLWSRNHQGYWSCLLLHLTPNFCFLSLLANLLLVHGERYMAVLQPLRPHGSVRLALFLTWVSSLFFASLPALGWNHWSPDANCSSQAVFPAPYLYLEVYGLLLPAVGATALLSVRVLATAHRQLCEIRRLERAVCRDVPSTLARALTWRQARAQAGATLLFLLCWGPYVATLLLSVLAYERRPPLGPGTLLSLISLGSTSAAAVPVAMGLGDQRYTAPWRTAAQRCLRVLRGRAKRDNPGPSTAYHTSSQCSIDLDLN
How it was run: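 HEK293-EBNA cells stably expressing mouse TGR5 (episomal vector) were suspended in serum-free DMEM with 500 μM IBMX and exposed to 12-point half-log compound dilutions for 1 h at room temperature. cAMP was detected by HTRF (d2-cAMP/anti-cAMP cryptate, 1 h, room temperature), giving EC50 from duplicates.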

Row | Cmax [1] [ng/mL] | EC50 (human TGR5 receptor) [nM] | EC50 (mouse TGR5 receptor) [nM] | Structure (SMILES)
1 | 59 | < 100 | < 100 | O=C(CCCC1CCN(c2cc(N3CCC[C@H]3C(=O)NCCc3ccc(Cl)c(Cl)c3)nc(C(F)(F)F)n2)CC1)NCS(=O)(=O)O [Compound 136, (S)-(4-(1-(6-(2-((3,4-dichlorophenethyl)carbamoyl)pyrrolidin-1-yl)-2-(trifluoromethyl)pyrimidin-4-yl)piperidin-4-yl)butanamido)methanesulfonic acid]
2 | 5.3 | < 100 | < 100 | O=C(CCCC1CCN(c2cc(N3CCC[C@H]3C(=O)NCCc3ccc(C(F)(F)F)cc3)nc(C(F)(F)F)n2)CC1)NCCNc1cc(N(CCO)CCO)ncn1 [Compound 111]
3 | 15 | < 100 | < 100 | N#Cc1ccc(CCNC(=O)[C@@H]2CCCN2c2cc(N3CCC(CCNC(=O)NCS(=O)(=O)O)CC3)nc(C(F)(F)F)n2)cc1 [Compound 79, (S)-(3-(2-(1-(6-(2-((4-cyanophenethyl)carbamoyl)pyrrolidin-1-yl)-2-(trifluoromethyl)pyrimidin-4-yl)piperidin-4-yl)ethyl)ureido)methanesulfonic acid]
4 | – | < 100 | < 100 | N#Cc1ccc(CCNC(=O)[C@@H]2CCCN2c2cc(N3CCC(CCNC(=O)N[C@H](CC(=O)O)C(=O)O)CC3)nc(C(F)(F)F)n2)cc1 [Compound 82, (R)-2-(3-(2-(1-(6-((S)-2-((4-cyanophenethyl)carbamoyl)pyrrolidin-1-yl)-2-(trifluoromethyl)pyrimidin-4-yl)piperidin-4-yl)ethyl)ureido)succinic acid]
5 | – | < 100 | < 100 | N#Cc1ccc(CCNC(=O)[C@@H]2CCN2c2cc(N3CCC(CCNC(=O)NCCOCCNC(=O)C(F)(F)F)CC3)nc(C(F)(F)F)n2)cc1 [Compound 357, (S)-N-(4-cyanophenethyl)-1-(6-(4-(13,13,13-trifluoro-4,12-dioxo-8-oxa-3,5,11-triazatridecyl)piperidin-1-yl)-2-(trifluoromethyl)pyrimidin-4-yl)azetidine-2-carboxamide]
6 | – | < 100 | 100 to 999 | O=C(NCCc1ccc(C(F)(F)F)cc1)[C@@H]1CCN1c1cc(N2CCC(CCCC3CCNCC3)CC2)nc(C(F)(F)F)n1 [Compound 275, (S)-1-(6-(4-(3-(piperidin-4-yl)propyl)piperidin-1-yl)-2-(trifluoromethyl)pyrimidin-4-yl)-N-(4-(trifluoromethyl)phenethyl)azetidine-2-carboxamide]
7 | – | 100 to 999 | 100 to 999 | CC(C)(C)OC(=O)NCCC1CCN(c2cc(N3CCC[C@@H](C(=O)NCCc4ccc(C#N)cc4)C3)nc(C(F)(F)F)n2)CC1 [Compound 312, (R)-tert-butyl (2-(1-(6-(3-((4-cyanophenethyl)carbamoyl)piperidin-1-yl)-2-(trifluoromethyl)pyrimidin-4-yl)piperidin-4-yl)ethyl)carbamate]
8 | – | 100 to 999 | 1000 to 30000 | Cc1nc(N2CCC(CO)CC2)cc(N2CCC[C@H]2C(=O)NCCc2ccc(C#N)cc2)n1 [Compound 36]
9 | – | < 100 | < 100 | CC1(CO)CCN(C(=O)NCCC2CCN(c3cc(N4CCC[C@H]4C(=O)NCCc4ccc(C#N)cc4)nc(C(F)(F)F)n3)CC2)CC1 [Compound 84, (S)-N-(2-(1-(6-(2-((4-cyanophenethyl)carbamoyl)pyrrolidin-1-yl)-2-(trifluoromethyl)pyrimidin-4-yl)piperidin-4-yl)ethyl)-4-(hydroxymethyl)-4-methylpiperidine-1-carboxamide]
10 | – | 100 to 999 | < 100 | N#Cc1ccc(CCNC(=O)[C@@H]2CCCN2c2cc(N3CCC(CC(=O)O)CC3)nc(C(F)(F)F)n2)cc1 [Compound 27]
11 | – | 100 to 999 | < 100 | N#Cc1ccc(CCNC(=O)[C@@H]2CCCN2c2cc(N3CCN(CCO)CC3)nc(C(F)(F)F)n2)cc1 [Compound 31]
12 | – | 100 to 999 | 100 to 999 | CN(C)CC(=O)N1CCN(c2cc(N3CCC[C@@H](C(=O)NCCc4ccc(C(F)(F)F)cc4)C3)nc(C(F)(F)F)n2)CC1 [Compound 338, (R)-1-(6-(4-(2-(dimethylamino)-acetyl)piperazin-1-yl)-2-(trifluoromethyl)-pyrimidin-4-yl)-N-(4-(trifluoromethyl)phenethyl)-piperidine-3-carboxamide]
13 | – | < 100 | < 100 | COC(=O)[C@H](CCC[N+](C)(C)C)NC(=O)CCCC1CCN(c2cc(N3CCC[C@H]3C(=O)NCCc3ccc(C#N)cc3)nc(C(F)(F)F)n2)CC1 [Compound 65, (S)-4-(4-(1-(6-((S)-2-((4-cyanophenethyl)carbamoyl)pyrrolidin-1-yl)-2-(trifluoromethyl)pyrimidin-4-yl)piperidin-4-yl)butanamido)-5-methoxy-N,N,N-trimethyl-5-oxopentan-1-aminium]
14 | – | < 100 | < 100 | N#Cc1ccc(CCNC(=O)[C@@H]2CCN2c2cc(N3CCC(CCCC(=O)N[C@@H](CCCNC(=N)N)C(=O)O)CC3)nc(C(F)(F)F)n2)cc1 [Compound 251, (S)-2-(4-(1-(6-((S)-2-((4-cyanophenethyl)carbamoyl)azetidin-1-yl)-2-(trifluoromethyl)pyrimidin-4-yl)piperidin-4-yl)butanamido)-5-guanidinopentanoic acid]
15 | – | 100 to 999 | < 100 | N#Cc1ccc(CCNC(=O)[C@@H]2CCCN2c2cc(-c3ccc(CO)s3)nc(C(F)(F)F)n2)cc1 [Compound 183, (S)-N-(4-cyanophenethyl)-1-(6-(5-(hydroxymethyl)thiophen-2-yl)-2-(trifluoromethyl)pyrimidin-4-yl)pyrrolidine-2-carboxamide]
16 | – | < 100 | < 100 | CCOC(=O)CCN/C(=N\C#N)NCCC1CCN(c2cc(N3CC[C@H]3C(=O)NCCc3ccc(C#N)cc3)nc(C(F)(F)F)n2)CC1 [Compound 350, (S,Z)-ethyl 3-(2-cyano-3-(2-(1-(6-(2-((4-cyanophenethyl)carbamoyl)azetidin-1-yl)-2-(trifluoromethyl)pyrimidin-4-yl)piperidin-4-yl)ethyl)guanidino)propanoate]
17 | – | 1000 to 30000 | < 100 | N#Cc1ccc(CCNC(=O)[C@@H]2CCCN(c3cc(N4CCN(CC(=O)O)CC4)nc(C(F)(F)F)n3)C2)cc1 [Compound 315, (R)-2-(4-(6-(3-((4-cyanophenethyl)carbamoyl)piperidin-1-yl)-2-(trifluoromethyl)pyrimidin-4-yl)piperazin-1-yl)acetic acid]
18 | – | < 100 | < 100 | COCCC1CCN(c2cc(N3CCC[C@H]3C(=O)NCCc3ccc(C#N)cc3)nc(C(F)(F)F)n2)CC1 [Compound 25]
19 | – | < 100 | < 100 | N#Cc1ccc(CCNC(=O)[C@@H]2CCCN2c2cc(N3CCC(CCCC(=O)NCCNc4ncnc5c4ncn5[C@@H]4O[C@H](CO)C(O)C4O)CC3)nc(C(F)(F)F)n2)cc1 (stereo partly drawn) [Compound 97, (2S)-N-(4-cyanophenethyl)-1-(6-(4-(4-((2-((9-((2R,5R)-3,4-dihydroxy-5-(hydroxymethyl)tetrahydrofuran-2-yl)-9H-purin-6-yl)amino)ethyl)amino)-4-oxobutyl)piperidin-1-yl)-2-(trifluoromethyl)-pyrimidin-4-yl)pyrrolidine-2-carboximide]

Reference: patent US10654834B2 (Venenum Biodesign, LLC, priority 2016, dated 2020)
